Reference: US20080045494A1, “Pyridine Analogues VI” (ASTRAZENECA AB, priority 2006, published 2008)

Molecular target: T1, P2Y12 receptor (Homo sapiens, UniProt Q9H244)
T1 construct: expressed in transfected cells; host or cells: CHO cells (membranes)
Experiment: Functional inhibition of 2-Me-S-ADP induced P2Y12 signalling (35S-GTPγS, membranes from P2Y12 transfected CHO-cells)
Type: biochemical
Conditions: EC80 concentration of agonist 2-methyl-thio-adenosine diphosphate; 30° C., 45 min
Description: Functional inhibition of the P2Y12 receptor can be measured by in vitro assays using cell membranes from P2Y12 transfected CHO-cells, the methodology is indicated below.
Functional inhibition of 2-Me—S-ADP induced P2Y12 signalling: 5 μg of membranes were diluted in 200 μl of 200 mM NaCl, 1 mM MgCl2, 50 mM HEPES (pH 7.4), 0.01% BSA, 30 μg/ml saponin and 10 μM GDP. To this was added an EC80 concentration of agonist (2-methyl-thio-adenosine diphosphate), the required concentration of test compound and 0.1 μCi ^35S-GTPγS. The reaction was allowed to proceed at 30° C. for 45 min. Samples were then transferred on to GF/B filters using a cell harvester and washed with wash buffer (50 mM Tris (pH 7.4), 5 mM MgCl2, 50 mM NaCl). Filters were then covered with scintillant and counted for the amount of ^35S-GTPγS retained by the filter. Maximum activity was that determined in the presence of the agonist and minimum activity in the absence of the agonist following subtraction of the value determined for non-specific activity. The effect of compounds at various concentrations was plotted according to the equation: […]
y=A+((B−A)/(1+((C/x)̂D)))
A is the bottom plateau of the curve i.e. the final minimum y value
B is the top of the plateau of the curve i.e. the final maximum y value
C is the x value at the middle of the curve. This represents the log EC50 value when A+B=100 […]

T1 sequence (Q9H244 whole entry): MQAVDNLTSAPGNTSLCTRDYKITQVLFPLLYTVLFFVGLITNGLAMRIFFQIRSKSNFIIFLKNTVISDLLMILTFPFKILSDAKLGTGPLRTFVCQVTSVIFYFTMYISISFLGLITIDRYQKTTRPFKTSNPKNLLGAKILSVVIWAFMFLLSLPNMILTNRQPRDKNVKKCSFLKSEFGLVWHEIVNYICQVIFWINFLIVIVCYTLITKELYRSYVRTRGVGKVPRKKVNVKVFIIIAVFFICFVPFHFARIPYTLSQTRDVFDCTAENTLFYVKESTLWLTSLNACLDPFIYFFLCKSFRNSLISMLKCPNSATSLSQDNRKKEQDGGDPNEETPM

IC50 | Compound
810 nM | Ethyl 6-{[3-({[(5-chloro-2-thienyl)sulfonyl]amino}carbonyl)cyclopentyl]amino}-5-cyano-1-(trifluoromethyl)nicotinate [Example 3]
240 nM | CCOC(=O)c1cc(C#N)c(NCC(=O)NS(=O)(=O)CCc2ccccc2)nc1C(F)(F)F [Example 6, Ethyl 5-cyano-6-[(2-oxo-2-{[(2-phenylethyl)sulfonyl]amino}ethyl)amino]-2-(trifluoromethyl)nicotinate]
